Experimental data taken from patent US6900216B2, “Dihydroimidazo[2,1-b]thiazole and dihydro-5h-thiazolo[3,2-A]pyrimidines as antidepressant agents” (Knoll GmbH, priority 2000, dated 2005).

The molecules below were run on muscarinic receptors (assay: Muscarinic binding: displacement of [3H]N-methylscopolamine, rat frontal cortical membranes). Conditions: 10^−6 M test compound, single determination, [3H]N-methylscopolamine.
Procedure: Frontal cortical tissue from the brains of male Charles River rats weighing 150-250 g was homogenised in ice-cold 20 mM HEPES buffer, pH 7.5 (measured at 25° C.) containing 100 mM sodium chloride and 10 mM magnesium chloride (1:10 w/v) using a Polytron PT3100 (speed setting 21,700 rpm, 3×5 seconds) and centrifuged at 49,500 g for 30 minutes at 4° C. The supernatant was discarded and the pellet rehomogenised in 20 mM HEPES buffer, pH 7.5 containing 100 mM sodium chloride and 10 mM magnesium chloride (equivalent to 12.5 mg wet weight of tissue/ml). Membranes were stored at −80° C. until required.
Membranes were thawed, diluted 1:10 in ice-cold 20 mM HEPES buffer, pH 7.5 containing 100 mM sodium chloride and 10 mM magnesium chloride and homogenised using a Polytron PT3100 as above. Diluted membranes (200 μl; equivalent to 0.25 mg wet weight of tissue/tube) were incubated with 200 μl of 20 mM HEPES buffer, pH 7.5 containing 100 mM sodium chloride and 10 mM magnesium chloride and 50 μl [^3H]N-methylscopolamine at a single concentration of 0.15 nM and 50 μl distilled water (total binding) or 50 μl test compound (at a single concentration of 10^−6 M or at 10 concentrations ranging from 10^−11-10^−3 M) or 50 μl atropine sulphate (1 μM; non-specific binding) for 30 min at 30° C. Membrane bound radioactivity was recovered by filtration under vacuum through Skatron 11734 filters using a Skatron cell harvester. Filters were rapidly washed with ice-cold 20 mM HEPES buffer, pH 7.5 (wash 1,2 at setting 5,5). The scored filter paper discs were punched out into vials, scintillation fluid added and radioactivity determined by liquid scintillation counting.
For each of these tests measuring the ability of compounds of Formula I to displace standard ligands from 5-HT1A receptors and 5-hydroxytryptamine (5-HT) and noradrenaline (NA) reuptake sites and muscarinic receptors in vitro, the percentage displacement of specific binding of tritiated ligand by 10^−6 M test compound was calculated in the following way.
Firstly, specific binding of tritiated ligand in the absence (A) and presence (B) of test compound was determined:
In the absence of compound: A(dpm)=Total binding (dpm)−Non-specific binding (dpm) In the presence of compound (10^−6 M): B(dpm)=Binding at 10^−6M (dpm)−Non-specific binding (dpm)
The specific binding of tritiated ligand in the presence (B) of compound was then converted to a percentage of specific binding of tritiated ligand in the absence (A) of compound: % Specific binding at 10^−6 M=B(dpm)/A(dpm)×100
The percentage displacement of specific binding of tritiated ligand by the test compound (10^−6 M) was then obtained by subtraction of the percentage specific binding in the presence of compound from the percentage specific binding in the absence of compound, which is taken as the maximum binding and so equals 100%:
% Displacement at 10^−6 M=100−% Specific binding at 10^−6 M.
In some cases, displacement curves were then produced for compounds which displaced ≧50% of specific binding of the tritiated ligand at 10^−6 M using a range of concentrations of the compound. The Ki was then calculated by simultaneous fitting using equations derived from the Feldman equations by robust non-linear regression to data from three experiments simultaneously (De Lean et al., 1978; Munson and Rodbard, 1980; Feldman, 1992). Munson P J and Rodbard D. Ligand: a versatile computerised approach for characterisation of ligand binding systems. Anal Biochem 1980; 107: 220. Feldman HA. Mathematical theory of complex ligand binding systems at equilibrium: some methods for parameter fitting. Anal Biochem 1992: 48, 317. De Lean A, Munson P J and Rodbard D. Simultaneous analysis of families of sigmoidal curves: application to bioassay, radioligand assay, and physiological dose-response curves. Am J Physiol 1978: 235 (2), E97-E102. […]

Compound | Muscarinic % displacement at 10^−6 M
Br.Clc1cccc2sc(C3=CSC4=NCCN34)cc12 [Example 1, 3-(4-chlorobenzo[b]thiophen-2-yl)-5,6-dihydroimidazo[2,1-b]thiazole hydrobromide] | 7%
Cl.Fc1cccc2sc(C3=CSC4=NCCN34)cc12 [Example 5, 3-(4-fluorobenzo[b]thiophen-2-yl)-5,6-dihydroimidazo[2,1-b]thiazole hydrochloride] | 42%
Br.CCC1=C(c2cc3cc(Cl)ccc3s2)N2CCN=C2S1 [Example 11, 3-(5-chlorobenzo[b]thiophen-2-yl)-2-ethyl-5,6-dihydroimidazo[2,1-b]thiazole hydrobromide] | 44%
Cc1cccc2sc(C3=CSC4=NCCN34)cc12.Cl [Example 14, 3-(4-methylbenzo[b]thiophen-2-yl)-5,6-dihydroimidazo[2,1-b]thiazole hydrochloride] | 9%
Br.CC1=C(c2cc3c(C)cccc3s2)N2CCN=C2S1 [Example 16, 2-methyl-3-(4-methylbenzo[b]thiophen-2-yl)-5,6-dihydroimidazo[2,1-b]thiazole hydrobromide] | 0%
Br.CC1=C(c2cc3c(Cl)cccc3s2)N2CCCN=C2S1 [Example 17, 3-(4-chlorobenzo[b]thiophen-2-yl)-2-methyl-6,7-dihydro-5H-thiazolo[3,2-a]pyrimidine hydrobromide] | 29%
Br.CCC1=C(c2cc3c(Cl)cccc3s2)N2CCN=C2S1 [Example 18, 3-(4-chlorobenzo[b]thiophen-2-yl)-2-ethyl-5,6-dihydroimidazo[2,1-b]thiazole hydrobromide] | 12%
Br.CC1=C(c2cc3cccc(Cl)c3s2)N2CCN=C2S1 [Example 20, 3-(7-chlorobenzo[b]thiophen-2-yl)-2-methyl-5,6-dihydroimidazo[2,1-b]thiazole hydrobromide] | 16%
Br.CC1=C(c2cc3c(Cl)c(Cl)ccc3s2)N2CCN=C2S1 [Example 24, 3-(4,5-dichlorobenzo[b]thiophen-2-yl)-2-methyl-5,6-dihydroimidazo[2,1-b]-thiazole hydrobromide] | −10%
Br.COc1cccc2cc(C3=C(C)SC4=NCCN43)sc12 [Example 26, 3-(7-methoxybenzo[b]thiophen-2-yl)-2-methyl-5,6-dihydroimidazo[2,1-b]thiazole hydrobromide] | −11%
Br.CC1(c2cc3cc(F)ccc3s2)CSC2=NCCN21 (centres unmarked) [Example 27, 3-(5-fluorobenzo[b]thiophen-2-yl)-3-methyl-5,6-dihydroimidazo[2,1-b]thiazole hydrobromide] | −1%
CCC1=C(c2ccc3sccc3c2)N2CCN=C2S1.O=C(O)/C=C/C(=O)O [Example 31, 3-(benzo[b]thiophen-5-yl)-2-ethyl-5,6-dihydroimidazo[2,1-b]thiazole fumarate] | 26%

Continued, values first:

Muscarinic % displacement at 10^−6 M | Compound
20% | C1=C(c2cccc3sccc23)N2CCN=C2S1.Cl [Example 2, 3-(benzo[b]thiophen-4-yl)-5,6-dihydroimidazo[2,1-b]thiazole hydrochloride]
−3% | OCC1=C(c2cccc3sccc23)N2CCN=C2S1 [Example 3, [3-(benzo[b]thiophen-4-yl)-5,6-dihydroimidazo[2,1-b]thiazol-2-yl]methanol]
0% | OCC1=C(c2cc3c(Cl)cccc3s2)N2CCN=C2S1 [Example 4, [3-(4-chlorobenzo[b]thiophen-2-yl)-5,6-dihydroimidazo[2,1-b]thiazol-2-yl]methanol]
−2% | Br.CC1=C(c2cc3ccccc3s2)N2CCN=C2S1 [Example 6, 3-(benzo[b]thiophen-2-yl)-2-methyl-5,6-dihydroimidazo[2,1-b]thiazole hydrobromide]
17% | Br.CC1=C(c2cc3c(F)cccc3s2)N2CCN=C2S1 [Example 7, 3-(4-fluorobenzo[b]thiophen-2-yl)-2-methyl-5,6-dihydroimidazo[2,1-b]thiazole hydrobromide]
0% | Br.CC1=C(c2cccc3sccc23)N2CCN=C2S1 [Example 8, 3-(benzo[b]thiophen-4-yl)-2-methyl-5,6-dihydroimidazo[2,1-b]thiazole hydrobromide]
13% | CC1=C(c2cccc3sccc23)N2CCN=C2S1.Cl [Example 9, 3-(benzo[b]thiophen-4-yl)-2-methyl-5,6-dihydroimidazo[2,1-b]thiazole hydrochloride]
12% | Br.CC1=C(c2cc3c(Cl)cccc3s2)N2CCN=C2S1 [Example 10, 3-(4-chlorobenzo[b]thiophen-2-yl)-2-methyl-5,6-dihydroimidazo[2,1-b]thiazole hydrobromide]
22% | Br.Oc1cccc2sc(C3=CSC4=NCCN34)cc12 [Example 12, 2-(5,6-dihydroimidazo[2,1-b]thiazol-3-yl)benzo[b]thiophen-4-ol hydrobromide]
−15% | OCC1=C(c2cc3ccccc3s2)N2CCN=C2S1 [Example 15, [3-(benzo[b]thiophen-2-yl)-5,6-dihydroimidazo[2,1-b]thiazol-2-yl]methanol]
2% | CSC1=C(c2cc3ccccc3s2)N2CCN=C2S1 [Example 19, 3-(benzo[b]thiophen-2-yl)-2-(methylthio)-5,6-dihydroimidazo[2,1-b]thiazole]
9% | Br.CC1=C(c2ccc3sccc3c2)N2CCN=C2S1 [Example 21, 3-(benzo[b]thiophen-5-yl)-2-methyl-5,6-dihydroimidazo[2,1-b]thiazole hydrobromide]
−5% | CC1=C(c2cccc3ccsc23)N2CCN=C2S1.Cl [Example 23, 3-(benzo[b]thiophen-7-yl)-2-methyl-5,6-dihydroimidazo[2,1-b]thiazole hydrochloride]
−8% | OCC1=C(c2ccc3sccc3c2)N2CCN=C2S1 [Example 28, [3-(benzo[b]thiophen-5-yl)-5,6-dihydroimidazo[2,1-b]-thiazol-2-yl]methanol]
12% | CSC1=C(c2ccc3sccc3c2)N2CCN=C2S1 [Example 30, 3-(benzo[b]thiophen-5-yl)-2-(methylthio)-5,6-dihydroimidazo[2,1-b]thiazole]

Same assay, conditions: [3H]N-methylscopolamine 0.15 nM, rat frontal cortical membranes

Compound | Ki
Br.CCC1=C(c2cccc3sccc23)N2CCN=C2S1 [Example 13, 3-(benzo[b]thiophen-4-yl)-2-ethyl-5,6-dihydroimidazo[2,1-b]thiazole hydrobromide] | 371 nM
CSC1=C(c2cccc3sccc23)N2CCN=C2S1.Cl [Example 22, 3-(benzo[b]thiophen-4-yl)-2-(methylthio)-5,6-dihydroimidazo[2,1-b]thiazole hydrochloride] | 439 nM
CC(C)C1=C(c2ccc3sccc3c2)N2CCN=C2S1 [Example 29, 3-(benzo[b]thiophen-5-yl)-2-(1-methylethyl)-5,6-dihydroimidazo[2,1-b]-thiazole] | 798 nM

Same assay, conditions: [3H]N-methylscopolamine 0.15 nM, rat frontal cortical membranes; fumarate

Compound | Ki
CCC1=C(c2cccc3sccc23)N2CCN=C2S1.O=C(O)/C=C/C(=O)O [Example 25, 3-(benzo[b]thiophen-4-yl)-2-ethyl-5,6-dihydroimidazo[2,1-b]thiazole fumarate] | 249 nM
CSC1=C(c2cccc3sccc23)N2CCN=C2S1.O=C(O)/C=C/C(=O)O [Example 32, 3-(benzo[b]thiophen-4-yl)-2-(methylthio)-5,6-dihydroimidazo[2,1-b]thiazole fumarate] | 331 nM
